# Measured values from publication PMC8152350, “High cytotoxicity of betulin towards fish and murine fibroblasts: Is betulin safe for nonneoplastic cells?” (BMC Veterinary Research, 2021).
# Where “and” joins values, the source holds several entries; their conditions need not be identical. Equal entries are not always repeated.
# Experiments:
# NIH/3T3 cells = experiment: MTT assay (mitochondrial activity), murine fibroblasts
# Description: NIH/3T3 (ATCC CRL-1658) mouse embryonic fibroblasts were grown in Dulbecco’s modified Eagle’s medium (DMEM) supplemented with 2 mM glutamine, 10 % foetal bovine serum and a 1 % antibiotic-antimycotic solution at 37 °C in a humidified atmosphere with 5 % CO2.
# NIH/3T3 and BF-2 cells were seeded in 96-well plates at a density of 1 × 10^4 or 2 × 10^4 cells per well, respectively. After 24 h of incubation at an appropriate temperature, cells were exposed to betulin at the concentrations mentioned above for 24, 48 and 72 h. Control (untreated) cells served as the negative control and a reference point. Triton X-100 treated cells served as the positive internal control in MTT, NRU and LDH assays. Due to the specific character of SRB assay, there was no positive control in this test. After 24, 48 and 72 h of treatment, the four different cytotoxicity assays were performed. All experiments were repeated three times.
# The MTT assay is used to estimate mitochondrial damage, since it determines the activity of mitochondrial enzymes. These enzymes reduce the water-soluble tetrazolium dye MTT to insoluble purple formazan, which accumulates inside viable cells.
# The MTT assay was conducted using the protocol described by Mosmann, with some modifications described in our previous article.
# The MTT assay was used to determine the cytotoxicity of both betulin and the vehicle (DMSO).
# All experiments were repeated three times. […] Statistical analyses were performed using GraphPad Prism software (GraphPad Software, USA). Data were subjected to one-way analysis of variance (ANOVA). Dunnett’s posttest was used to determine differences between control and betulin-exposed cells at the same time points. Differences between the two cell lines at the same time points were determined using Student’s t-test. The 50 % cytotoxic concentrations (CC50, defined as the concentration of the compound that reduced cell viability by 50 %) were calculated using the Quest Graph™ ED50 Calculator (AAT Bioquest, Inc.).
# BF-2 cells = experiment: MTT assay (mitochondrial activity), fish fibroblasts; assay type: cell-based, bluegill
# Description: BF-2 (ATCC CCL-91) bluegill caudal trunk fibroblasts were grown in minimum essential medium (Eagle, EBSS) supplemented with 1 % nonessential amino acids (NEAAs), 10 % foetal bovine serum and 1 % antibiotic-antimycotic solution at 23 °C in a humidified atmosphere with 5 % CO2.
# All experiments were repeated three times.
# [1] = system: murine Balb/3T3 fibroblasts; design: method as in PMID 16112835; conditions: Balb/3T3, MTT assay; cited from earlier work
# [2] = system: GSF3.2 goat skin fibroblasts; design: method as in earlier work; conditions: GSF3.2, trypan blue; cited from earlier work
structure (smiles),measurement,setting,value
"C[S+](C)[O-] [DMSO, Dimethyl sulfoxide]",CC50 DMSO (MTT) 24 h,"NIH/3T3 cells; NIH/3T3, 24 h, mean ± SD, n = 3",2.989 ± 0.159%
same,CC50 DMSO (MTT) 48 h,"NIH/3T3 cells; NIH/3T3, 48 h, mean ± SD, n = 3",2.374 ± 0.395%
same,CC50 DMSO (MTT) 72 h,"NIH/3T3 cells; NIH/3T3, 72 h, mean ± SD, n = 3",1.635% and 1.635 ± 0.423%
same,maximum tolerable DMSO concentration,"NIH/3T3 cells; NIH/3T3, concentration at which viability exceeded 90 % throughout the experiment",0.625%
same,DMSO concentration with absence of any measurable activity of mitochondria,"NIH/3T3 cells; murine fibroblasts, MTT",10%
same,CC50 DMSO (MTT) 24 h,"BF-2 cells; BF-2, 24 h, mean ± SD, n = 3",5.031 ± 0.423%
same,CC50 DMSO (MTT) 48 h,"BF-2 cells; BF-2, 48 h, mean ± SD, n = 3",4.434 ± 0.717%
same,CC50 DMSO (MTT) 72 h,"BF-2 cells; BF-2, 72 h, mean ± SD, n = 3",4.794% and 4.794 ± 0.337%
same,maximum tolerable DMSO concentration,"BF-2 cells; BF-2, concentration at which viability exceeded 90 % throughout the experiment",1.25%
same,DMSO concentration with absence of any measurable activity of mitochondria,"BF-2 cells; fish fibroblasts, MTT",20%
same,IC50 of DMSO,[1],2.75%
same,DMSO concentrations giving significant increase in the number of live cells,[2],less than 0.1%
